Experimental findings from patent US20040176317A1, “Functionalised maltosyl fluoride as glycosyl donor in the chemo-enzymatic preparation of ratio of oligo-or polysaccharides” (priority 2001, published 2004) are described below.

This data set in a line: Storage stability of the lyophilized fluoride. The data set is classed as physicochemical. As to conditions: for stability of the fluoride: at −18° C. in the lyophilized form. As for the experimental part: This fluoride is stable at −18° C. in the lyophilized form.

Turning to `OCC1O[C@H](O[C@@H]2C(CO)O[C@H](F)C(O)C2O)C(O)C(O)[C@@H]1OC1CCCCO1` (stereo partly drawn) [Example 1e, 4-0-tetrahydropyranyl-α-D-glucopyran-osyl-(1→4)-α-D-glucopyranosyl fluoride], the first decomposition compound result is listed as “α-maltosyl fluoride” and the “stability of the fluoride” value was “stable”. As to `OC[C@H]1O[C@H](F)[C@H](O)[C@@H](O)[C@@H]1O[C@H]1O[C@H](CBr)[C@@H](OC2CCCCO2)[C@H](O)[C@H]1O` (stereo partly drawn) [Example 4d, 6-bromo-6-deoxy-4-O-tetrahydro-pyranyl-α-D-glucopyranosyl-(1→4)-α-D-glucopyranosyl fluoride], the “stability of the fluoride” value was “stable”.
